Test results published in ChEMBL document CHEMBL1201862, “PubChem BioAssay data set” (2004).
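Protocol summary: plate cells (96-well), add compound at 5 concentrations, incubate 48 h, interpolate endpoints linearly. GI50: concentration for 50% inhibition of growth.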 The source made the active and inactive calls. Rule as the data show it: active = GI50 up to about 1.1 µM and inactive = higher.

Legend:
Assay in all cases: NCI anticancer screen, dose series, 48 h
SN12C = test system: SN12C
CAKI-1 = test system: CAKI-1
Hs-578T = test system: Hs-578T
KM-20L2 = test system: KM-20L2
SF-295 = test system: SF-295
U-251 = test system: U-251
HOP-18 = test system: HOP-18
ACHN = test system: ACHN
UACC-62 = test system: UACC-62
SNB-78 = test system: SNB-78
K562 = test system: K562
UO-31 = test system: UO-31
SR = test system: SR
TK-10 = test system: TK-10
MCF7 = test system: MCF7
SF-268 = test system: SF-268
SNB-75 = test system: SNB-75
HCT-116 = test system: HCT-116
IGROV-1 = test system: IGROV-1
DLD-1 = test system: DLD-1
T47D = test system: T47D
SK-MEL-28 = test system: SK-MEL-28
NCI/ADR-RES = test system: NCI/ADR-RES
PC-3 = test system: PC-3
SK-OV-3 = test system: SK-OV-3
EKVX = test system: EKVX
HL-60 = test system: HL-60
HCT-15 = test system: HCT-15
DU-145 = test system: DU-145
LOX IMVI = test system: LOX IMVI
MOLT-4 = test system: MOLT-4
DMS-273 = test system: DMS-273
HCC 2998 = test system: HCC 2998
NCI-H460 = test system: NCI-H460
SF-539 = test system: SF-539
MDA-MB-435 = test system: MDA-MB-435
BT-549 = test system: BT-549
OVCAR-3 = test system: OVCAR-3
HOP-92 = test system: HOP-92
KM12 = test system: KM12
CCRF-CEM = test system: CCRF-CEM
SK-MEL-2 = test system: SK-MEL-2
HT-29 = test system: HT-29
SK-MEL-5 = test system: SK-MEL-5
UACC-257 = test system: UACC-257
RXF 393 = test system: RXF 393
HOP-62 = test system: HOP-62
RPMI-8226 = test system: RPMI-8226
NCI-H522 = test system: NCI-H522
NCI-H226 = test system: NCI-H226
NCI-H23 = test system: NCI-H23
786-0 = test system: 786-0
A498 = test system: A498
OVCAR-5 = test system: OVCAR-5
OVCAR-4 = test system: OVCAR-4
MDA-MB-231 = test system: MDA-MB-231
OVCAR-8 = test system: OVCAR-8
M14 = test system: M14
M19-MEL = test system: M19-MEL
Malme-3M = test system: Malme-3M
MDA-N = test system: MDA-N
SNB-19 = test system: SNB-19
DMS-114 = test system: DMS-114
SW-620 = test system: SW-620
A549 = test system: A549
LXFL 529 = test system: LXFL 529
COLO 205 = test system: COLO 205
XF498 = test system: XF498

## CC(C)CCCCCCCCCCCCC(=O)NCC(=O)NC1C(O)C(O)C(Nc2[nH]cnc3ncnc2-3)OC1C(O)CO (configuration not stated)
SN12C
  GI50: 0.000753 µM (active)
CAKI-1
  GI50: 0.000472 µM (active)
Hs-578T
  GI50: 0.172 µM (active)
KM-20L2
  GI50: 0.000166 µM (active)
SF-295
  GI50: 0.000604 µM (active)
U-251
  GI50: 0.000461 µM (active)
HOP-18
  GI50: 0.000164 µM (active)
ACHN
  GI50: 0.225 µM (active)
UACC-62
  GI50: 0.000519 µM (active)
SNB-78
  GI50: 0.000148 µM (active)
K562
  GI50: 0.0436 µM (active)
UO-31
  GI50: 0.000574 µM (active)
SR
  GI50: 0.426 µM (active)
TK-10
  GI50: 0.179 µM (active)
MCF7
  GI50: 0.0234 µM (active)
SF-268
  GI50: 0.00359 µM (active)
SNB-75
  GI50: 0.000441 µM (active)
HCT-116
  GI50: 0.000479 µM (active)
IGROV-1
  GI50: 0.000508 µM (active)
DLD-1
  GI50: 0.0205 µM (active)
T47D
  GI50: 0.32 µM (active)
SK-MEL-28
  GI50: 0.0316 µM (active)
NCI/ADR-RES
  GI50: 0.00403 µM (active)
PC-3
  GI50: 0.183 µM (active)
SK-OV-3
  GI50: 0.000671 µM (active)
EKVX
  GI50: 0.00175 µM (active)
HL-60
  GI50: 0.00057 µM (active)
HCT-15
  GI50: 0.0653 µM
DU-145
  GI50: 0.19 µM (active)
LOX IMVI
  GI50: 0.000508 µM (active)
MOLT-4
  GI50: 0.0121 µM (active)
DMS-273
  GI50: 0.000133 µM (active)
HCC 2998
  GI50: 0.00018 µM (active)
NCI-H460
  GI50: 0.000541 µM (active)
SF-539
  GI50: 0.000849 µM (active)
MDA-MB-435
  GI50: 0.224 µM (active)
BT-549
  GI50: 0.207 µM (active)
OVCAR-3
  GI50: 0.000605 µM (active)
HOP-92
  GI50: 0.00049 µM (active)
KM12
  GI50: 0.000575 µM (active)
CCRF-CEM
  GI50: 0.0568 µM (active)
SK-MEL-2
  GI50: 0.00579 µM (active)
HT-29
  GI50: 0.000555 µM (active)
SK-MEL-5
  GI50: 0.00114 µM (active)
UACC-257
  GI50: 0.000605 µM (active)
RXF 393
  GI50: 0.000877 µM (active)
HOP-62
  GI50: 0.000453 µM (active)
RPMI-8226
  GI50: 0.000525 µM (active)
NCI-H522
  GI50: 0.000664 µM (active)
NCI-H226
  GI50: 0.000552 µM (active)
NCI-H23
  GI50: 0.00125 µM (active)
786-0
  GI50: 0.225 µM (active)
A498
  GI50: 0.000248 µM (active)
OVCAR-5
  GI50: 0.00199 µM (active)
OVCAR-4
  GI50: 0.000492 µM (active)
MDA-MB-231
  GI50: 0.182 µM (active)
OVCAR-8
  GI50: 0.000578 µM (active)
M14
  GI50: 0.191 µM (active)
M19-MEL
  GI50: 0.000211 µM (active)
Malme-3M
  GI50: 0.000679 µM (active)
MDA-N
  GI50: 0.229 µM (active)
SNB-19
  GI50: 0.000564 µM (active)
DMS-114
  GI50: 0.000416 µM (active)

## C/C(=C\CBr)CCC(Br)C(C)(C)Cl (configuration not stated)
SN12C
  GI50: > 100 µM (inactive)
CAKI-1
  GI50: > 100 µM (inactive)
SF-295
  GI50: > 100 µM (inactive)
U-251
  GI50: > 100 µM (inactive)
HOP-18
  GI50: > 100 µM (inactive)
SW-620
  GI50: > 100 µM (inactive)
ACHN
  GI50: > 100 µM (inactive)
UACC-62
  GI50: > 100 µM (inactive)
SNB-78
  GI50: > 100 µM (inactive)
K562
  GI50: > 100 µM (inactive)
UO-31
  GI50: > 100 µM (inactive)
SR
  GI50: > 100 µM (inactive)
TK-10
  GI50: > 100 µM (inactive)
SF-268
  GI50: > 100 µM (inactive)
SNB-75
  GI50: > 100 µM (inactive)
HCT-116
  GI50: > 100 µM (inactive)
IGROV-1
  GI50: > 100 µM (inactive)
DLD-1
  GI50: > 100 µM (inactive)
SK-MEL-28
  GI50: > 100 µM (inactive)
SK-OV-3
  GI50: > 100 µM (inactive)
HCT-15
  GI50: > 100 µM
LOX IMVI
  GI50: > 100 µM (inactive)
MOLT-4
  GI50: > 100 µM (inactive)
DMS-273
  GI50: > 100 µM (inactive)
A549
  GI50: > 100 µM (inactive)
NCI-H460
  GI50: > 100 µM (inactive)
SF-539
  GI50: > 100 µM (inactive)
HOP-92
  GI50: > 100 µM (inactive)
KM12
  GI50: > 100 µM (inactive)
SK-MEL-2
  GI50: > 100 µM (inactive)
HT-29
  GI50: > 100 µM (inactive)
SK-MEL-5
  GI50: > 100 µM (inactive)
UACC-257
  GI50: > 100 µM (inactive)
RXF 393
  GI50: > 100 µM (inactive)
HOP-62
  GI50: > 100 µM (inactive)
RPMI-8226
  GI50: > 100 µM (inactive)
NCI-H522
  GI50: > 100 µM (inactive)
NCI-H226
  GI50: > 100 µM (inactive)
NCI-H23
  GI50: > 100 µM (inactive)
786-0
  GI50: > 100 µM (inactive)
OVCAR-5
  GI50: > 100 µM (inactive)
OVCAR-4
  GI50: > 100 µM (inactive)
OVCAR-8
  GI50: > 100 µM (inactive)
M14
  GI50: > 100 µM (inactive)
LXFL 529
  GI50: > 100 µM (inactive)
COLO 205
  GI50: > 100 µM (inactive)
M19-MEL
  GI50: > 100 µM (inactive)
Malme-3M
  GI50: > 100 µM (inactive)
DMS-114
  GI50: > 100 µM (inactive)

## O=C(O)CCN(CCCCN(CCC(=O)O)CCC(=O)O)CCC(=O)O
SN12C
  GI50: > 100 µM (inactive)
CAKI-1
  GI50: > 100 µM (inactive)
SF-295
  GI50: > 100 µM (inactive)
U-251
  GI50: > 100 µM (inactive)
HOP-18
  GI50: > 100 µM (inactive)
SW-620
  GI50: > 100 µM (inactive)
ACHN
  GI50: > 100 µM (inactive)
UACC-62
  GI50: > 100 µM (inactive)
K562
  GI50: > 100 µM (inactive)
TK-10
  GI50: > 100 µM (inactive)
SF-268
  GI50: > 100 µM (inactive)
SNB-75
  GI50: > 100 µM (inactive)
HCT-116
  GI50: > 100 µM (inactive)
IGROV-1
  GI50: > 100 µM (inactive)
DLD-1
  GI50: > 100 µM (inactive)
SK-MEL-28
  GI50: > 100 µM (inactive)
SK-OV-3
  GI50: > 100 µM (inactive)
EKVX
  GI50: > 100 µM (inactive)
HL-60
  GI50: > 100 µM (inactive)
HCT-15
  GI50: > 100 µM
LOX IMVI
  GI50: > 100 µM (inactive)
XF498
  GI50: > 100 µM (inactive)
MOLT-4
  GI50: > 100 µM (inactive)
DMS-273
  GI50: > 100 µM (inactive)
HCC 2998
  GI50: > 100 µM (inactive)
A549
  GI50: > 100 µM (inactive)
NCI-H460
  GI50: > 100 µM (inactive)
SF-539
  GI50: > 100 µM (inactive)
OVCAR-3
  GI50: > 100 µM (inactive)
HOP-92
  GI50: > 100 µM (inactive)
KM12
  GI50: > 100 µM (inactive)
CCRF-CEM
  GI50: > 100 µM (inactive)
SK-MEL-2
  GI50: > 100 µM (inactive)
HT-29
  GI50: > 100 µM (inactive)
SK-MEL-5
  GI50: > 100 µM (inactive)
HOP-62
  GI50: > 100 µM (inactive)
RPMI-8226
  GI50: > 100 µM (inactive)
NCI-H522
  GI50: > 100 µM (inactive)
NCI-H23
  GI50: > 100 µM (inactive)
786-0
  GI50: > 100 µM (inactive)
A498
  GI50: > 100 µM (inactive)
OVCAR-5
  GI50: > 100 µM (inactive)
OVCAR-4
  GI50: > 100 µM (inactive)
OVCAR-8
  GI50: > 100 µM (inactive)
M14
  GI50: > 100 µM (inactive)
LXFL 529
  GI50: > 100 µM (inactive)
COLO 205
  GI50: > 100 µM (inactive)
M19-MEL
  GI50: > 100 µM (inactive)
Malme-3M
  GI50: > 100 µM (inactive)
DMS-114
  GI50: > 100 µM (inactive)
